Values after ≈ are worked out from the molar mass of the structure shown.
Assays:
[1] = Spot-on-lawn-based lipid II binding (competition) assay; parameters: species or system Lactococcus lactis; conditions: spot-on-lawn on L. lactis MG1363 GM17 agar; estercin A 8 μg spotted adjacent to lipid II (300 μM, 3 μL); nisin positive, daptomycin negative control
Experimental: The binding of the peptides to pure lipid II ([…]) was tested by the spot-on-the- lawn assay. Here, nisin and daptomycin were used for comparison.[51]

[2] = tested on: Clostridium botulinum CECT551; conditions: Reinforced Clostridium Medium, Coy Anaerobic Chamber, 18 h, 37 °C, three biological replicates
[3] = tested on: Clostridium tetani CECT4629; conditions: Reinforced Clostridium Medium, Coy Anaerobic Chamber, 18 h, 37 °C, three biological replicates
L. lactis MG1363 [4] = assay: Time killing assay; format: cell-based, Lactococcus lactis; conditions: L. lactis MG1363, 5 × 10^5 CFU/mL, 10-fold the MIC, GM17, 30 °C, CFU counts, triplicate
Experimental: Time-killing assays were conducted according to the previously described protocol.[57] Briefly, an overnight culture of L. lactis MG1363 was diluted 50-fold in GM17 and incubated at 30 °C. The cells were grown for about 3 h to an OD600 of 0.5, and then the cell concentration was adjusted to 5 × 10^5 CFU/mL. […] Untreated cells were used as a control. At predetermined time points, 50 μL was taken from each sample, and undiluted and 10-fold serially diluted suspensions were plated on GM17 agar plates. After the overnight incubation at 30 °C, the colonies on the plates were counted and then calculated as the colony-forming units per milliliter. The experiment was carried out in triplicate.

[5] = tested on: Enterococcus faecium LMG16003 (VRE); conditions: LMG16003, 18 h
L. lactis MG1363 [6] = assay: Fluorescence microscopy assay (SYTO-9/PI) for membrane pore formation; format: cell-based, Lactococcus lactis; conditions: L. lactis MG1363, peptide at 2-fold MIC, SYTO-9 and 5 μM PI, 15 min room temperature
Experimental: An overnight culture of L. lactis MG1363 was added to the GM17 broth to a final concentration of 1% (v/v) and grown to an OD600 of 0.8. The culture was centrifuged at 6,000 rpm for 5 min and washed three times in the MHB medium. […] Simultaneously, 5 μM PI and SYTO 9 were added to the samples. After incubation at room temperature for 15 min, the samples were centrifuged, and the supernatant was removed. And the cells were washed three times with MHB. After that, the harvest cells were loaded on 1.5% agarose pads and analyzed by a DeltaVision Elite microscope (Applied Precision).

[7] = tested on: Enterococcus faecalis LMG16216 (VRE); conditions: LMG16216, 18 h
[8] = tested on: Clostridium perfringens CECT376; conditions: Reinforced Clostridium Medium, Coy Anaerobic Chamber, 18 h, 37 °C, three biological replicates
[9] = tested on: Listeria monocytogenes LMG10470; conditions: LMG10470, 18 h
[10] = tested on: Staphylococcus aureus LMG15975 (MRSA); conditions: LMG15975, 18 h
[11] = pH stability (remaining antimicrobial activity); conditions: pH 2, 4, 7 or 10 adjusted with HCl or NaOH; read-out antimicrobial activity on L. lactis MG1363 agar; three biological replicates
[12] = tested on: Staphylococcus aureus LMG10147; conditions: LMG10147, 18 h
Gram-positive strains = format: cell-based
[13] = tested on: Lactococcus lactis MG1363; conditions: 18 h
[14] = Thermal stability (remaining antimicrobial activity); format: physicochemical; conditions: 4 h at 95 °C; read-out antimicrobial activity on L. lactis MG1363 agar; three biological replicates
[15] = tested on: Bacillus cereus ATCC14579; conditions: ATCC14579, 18 h
C. perfringens = conditions: reported value, ref not given; cited from earlier work

C=C1NC(=O)[C@H](C(C)C)NC(=O)C2CSC[C@@H](C(=O)N[C@@H](CCCCN)C(=O)O)NC(=O)[C@H](CSC(C)C3NC(=O)[C@H](Cc4ccccc4)NC(=O)C(NC(=O)[C@@H](NC(=O)[C@@H](NC(=O)[C@@H](NC(=O)CNC(=O)CNC(=O)CN)C(C)C)[C@@H](C)CC)[C@@H](C)O)C(C)SC[C@H](NC(=O)[C@H](CCC(=O)O)NC(=O)[C@H](Cc4c[nH]cn4)NC3=O)C(=O)N[C@@H](Cc3ccc(O)cc3)C(=O)N[C@@H](Cc3ccc(O)cc3)C(=O)N[C@@H](CC(N)=O)C(=O)N2)NC(=O)CNC(=O)CNC(=O)[C@H](Cc2c[nH]c3ccccc23)NC(=O)[C@H](CO)NC(=O)[C@H](C)NC(=O)[C@@H]2CCCN2C1=O (some centres unmarked) [estercin A]
Lipid II binding [1]: binds to lipid II | MIC [2]: 32 µg/mL (≈ 11.6 µM) | MIC [3]: 4 µg/mL (≈ 1.45 µM) | Rate of killing (L. lactis MG1363 [4]): slower rate of killing | MIC [5]: 64 µg/mL (≈ 23.2 µM) | Membrane pore-forming ability (L. lactis MG1363 [6]): cannot form pores on the membrane of target cells | MIC [7]: 64 µg/mL (≈ 23.2 µM) | MIC [8]: 1 µg/mL (≈ 0.363 µM) | MIC [9]: >64 µg/mL | MIC [10]: 4 µg/mL (≈ 1.45 µM) | pH stability: activity retained after incubation [11]: retained most of their activity | MIC [12]: 16 µg/mL (≈ 5.81 µM) | Antimicrobial activity against selected Gram-positive strains (Gram-positive strains): broad spectrum of activity | MIC [13]: 4 µg/mL (≈ 1.45 µM) | Reduction of antimicrobial activity after 95 °C exposure [14]: less than 30% | MIC [15]: 8 µg/mL (≈ 2.91 µM)

ruminococcin A
MIC (C. perfringens): 75 µg/mL
